Test systems include CHRF288-11; CMS; MOLM-13; MV4-11; ML-2; U937; M07e; CMK.
Holding throughout (design): species or system AML cell lines (8); Primary HTS, single concentration about 10 uM, Cell Titer Glo viability; log10 luminescence, per cent inhibition relative to cycloheximide control
What all share (details): 72 h, relative to cycloheximide control, log10 luminescence; inhibitor

Consider `CC1(C)CC(n2cnc(-c3ccc(F)cc3)c2-c2ccnc(N)n2)CC(C)(C)N1` [SJ000573190-1, JB19236-188C1], for which, in the assay on CHRF288-11, the CHRF288-11 %inh was 9.345%. Also, in the assay on CMS, the CMS %inh is listed as -2.621%. Besides, the MOLM-13 %inh in the assay on MOLM-13 was 0.169%. Moreover, the MV4-11 %inh in the assay on MV4-11 was 1.547%. In the assay with ML-2, the ML-2 %inh is 5.936%. In addition, the U937 %inh with U937 is recorded as -2.021%. For the same molecule, the M07e %inh in the assay with M07e was determined as 10.18%. For the same molecule, the CMK %inh in the assay with CMK turned out to be 5.841%.
With `Cn1cc(C2=C(c3cccc(Cl)c3)C(=O)NC2=O)c2ccccc21` [SJ000580981-1], the CHRF288-11 %inh in the assay with CHRF288-11 is listed as 3.619%. Also, in the assay with CMS, the CMS %inh is given as -3.182%. Besides, the MOLM-13 %inh in the assay on MOLM-13 is recorded as -1.961%. Besides, in the assay with MV4-11, the MV4-11 %inh was -5.929%. For the same molecule, the ML-2 %inh in the assay on ML-2 was -1.322%. Also, the U937 %inh with U937 is reported as 1.717%. Also, the M07e %inh in the assay on M07e was 1.057%. The CMK %inh with CMK was -0.373%.
Consider `Cc1cc(O)cc(C)c1/C=C/c1cncc(C(=O)N(C)C)c1` [SJ000573241-1, U11962/4/2], for which, in the assay on CHRF288-11, the CHRF288-11 %inh is 4.933%. In the assay with CMS, the CMS %inh is on record as 2.581%. Further, the MOLM-13 %inh in the assay on MOLM-13 is -1.208%. The MV4-11 %inh in the assay with MV4-11 is reported as 0.1016%. In the assay on ML-2, the ML-2 %inh is reported as -0.6112%. Further, the U937 %inh in the assay on U937 was -1.176%. In addition, the M07e %inh in the assay with M07e is given as 3.606%. In addition, the CMK %inh in the assay on CMK came out at 1.656%.
For the molecule `COc1cccc(COc2cc(-n3cnc4ccccc43)sc2C(N)=O)c1` [SJ000573305-1, U17845/44/3], the CHRF288-11 %inh with CHRF288-11 is on record as 7.099%. Besides, the CMS %inh in the assay on CMS came out at 2.005%. Besides, in the assay on MOLM-13, the MOLM-13 %inh amounted to 4.701%. Besides, the MV4-11 %inh in the assay with MV4-11 worked out at 0.1016%. Moreover, the ML-2 %inh with ML-2 is 3.033%. Besides, the U937 %inh in the assay with U937 came to 5.488%. Also, the M07e %inh in the assay with M07e was 2.73%. Also, the CMK %inh in the assay with CMK is 1.494%.
As to `COc1ccc(-c2nn3ncccc3c2-c2ccnc(Nc3ccc(Cl)c(C(F)(F)F)c3)n2)cc1` [SJ000573073-1, U17838/183/2], in the assay on CHRF288-11, the CHRF288-11 %inh is 1.294%. Further, the CMS %inh with CMS worked out at 0.1387%. In addition, the MOLM-13 %inh with MOLM-13 is given as -0.8658%. The MV4-11 %inh in the assay on MV4-11 is reported as 3.163%. In addition, the ML-2 %inh with ML-2 is listed as -1.529%. The U937 %inh with U937 is given as 0.7639%. Moreover, the M07e %inh in the assay on M07e is listed as -2.862%. Also, the CMK %inh in the assay on CMK was found to be 3.073%.
Regarding `COC[C@H](N=C1NC(=O)/C(=C/c2ccc3ncccc3c2)S1)c1ccccc1` [SJ000581086-1], the CHRF288-11 %inh with CHRF288-11 is on record as 2.677%. Besides, in the assay with CMS, the CMS %inh was determined as 4.472%. Further, in the assay on MOLM-13, the MOLM-13 %inh was -1.579%. Further, the MV4-11 %inh in the assay on MV4-11 is recorded as -0.3199%. Moreover, the ML-2 %inh with ML-2 came to 2.549%. The U937 %inh in the assay with U937 is 4.246%. In addition, the M07e %inh in the assay with M07e was 15.62%. Further, the CMK %inh in the assay with CMK is on record as 5.986%.
Regarding `O=C1NC(=NCCc2ccc(F)cc2)S/C1=C\c1ccc2ncccc2c1` [SJ000580954-1], the CHRF288-11 %inh in the assay on CHRF288-11 is recorded as -1.783%. The CMS %inh in the assay with CMS was -3.568%. Moreover, the MOLM-13 %inh in the assay on MOLM-13 amounted to 4.197%. Further, the MV4-11 %inh in the assay with MV4-11 is recorded as -0.3593%. In addition, in the assay on ML-2, the ML-2 %inh was 0.5359%. Besides, the U937 %inh with U937 is 1.346%. In addition, the M07e %inh in the assay on M07e is reported as -2.647%. Further, in the assay on CMK, the CMK %inh came to 4.249%.
As for `Fc1cccc(COc2ccc(Nc3ncnc4sc(-c5ccco5)cc34)cc2Cl)c1` [SJ000573002-1, U22476/39/2], the CHRF288-11 %inh in the assay on CHRF288-11 was -4.95%. Besides, in the assay with CMS, the CMS %inh came to 0.3499%. The MOLM-13 %inh with MOLM-13 is -2.902%. Also, the MV4-11 %inh in the assay on MV4-11 is -1.439%. In the assay on ML-2, the ML-2 %inh is on record as 0.9644%. Moreover, the U937 %inh with U937 is on record as 0.5844%. Further, the M07e %inh in the assay on M07e was -3.433%. The CMK %inh with CMK is on record as -2.703%.

(Values after paper PMC6522510 (Nature Communications, 2019).)
